Numbers after ± are expanded uncertainties.

A short description of one data set: molar heat capacity at constant pressure. Conditions: 323.15 K; 101.33 kPa; Liquid; Large sample (1 g) DSC.
Turning to `CCCCCCCCOCCOCCOCCO` [2-[2-[2-(octyloxy)ethoxy]ethoxy]ethanol], the “molar heat capacity at constant pressure” value was 587.7 ± 9.1 J/K/mol.

Regarding `CCCCOCCO` [2-butoxyethan-1-ol], the “molar heat capacity at constant pressure” value is listed as 285.5 ± 4.4 J/K/mol.

As for `CCOCCO` [2-ethoxyethan-1-ol], the “molar heat capacity at constant pressure” value is 220.2 ± 3.4 J/K/mol.

In the case of `CCCOCCO` [2-propoxyethanol], the “molar heat capacity at constant pressure” value amounted to 252.5 ± 3.9 J/K/mol.

The data set is the same for the next values; noted with them: 325.15 K; 101.33 kPa; Liquid; Large sample (1 g) DSC.
For the molecule `CCCCCCOCCOCCO` [2-(2-hexyloxyethoxy)ethanol], the “molar heat capacity at constant pressure” value turned out to be 433.9 ± 6.7 J/K/mol.

Regarding `COCCOCCO` [2-(2-methoxyethoxy)ethanol], the “molar heat capacity at constant pressure” value is recorded as 275.3 ± 4.3 J/K/mol.

With `CCCOCCOCCO` [2-(2-propoxyethoxy)ethanol], the “molar heat capacity at constant pressure” value is recorded as 340.3 ± 5.3 J/K/mol.

As for `COCCOCCOCCO` [2-[2-(2-methoxyethoxy)ethoxy]ethanol], the “molar heat capacity at constant pressure” value is reported as 363.4 ± 5.6 J/K/mol.

As to `CCCCCCCCOCCOCCOCCO` [2-[2-[2-(octyloxy)ethoxy]ethoxy]ethanol], the “molar heat capacity at constant pressure” value worked out at 589 ± 9.1 J/K/mol.

For the molecule `CCCCOCCO` [2-butoxyethan-1-ol], the “molar heat capacity at constant pressure” value worked out at 286.5 ± 4.4 J/K/mol.

As to `CCOCCO` [2-ethoxyethan-1-ol], the “molar heat capacity at constant pressure” value was 221 ± 3.4 J/K/mol.

Take `CCCOCCO` [2-propoxyethanol]: the “molar heat capacity at constant pressure” value was 253.4 ± 3.9 J/K/mol.

Staying with this data set, now noted: 327.15 K; 101.33 kPa; Liquid; Large sample (1 g) DSC.
On to `CCCCCCOCCOCCO` [2-(2-hexyloxyethoxy)ethanol], for which the “molar heat capacity at constant pressure” value amounted to 434.9 ± 6.7 J/K/mol.

`COCCOCCO` [2-(2-methoxyethoxy)ethanol]: the “molar heat capacity at constant pressure” value was 276 ± 4.3 J/K/mol.

With `CCCOCCOCCO` [2-(2-propoxyethoxy)ethanol], the “molar heat capacity at constant pressure” value was found to be 341.1 ± 5.3 J/K/mol.

Regarding `COCCOCCOCCO` [2-[2-(2-methoxyethoxy)ethoxy]ethanol], the “molar heat capacity at constant pressure” value is given as 364 ± 5.6 J/K/mol.

As for `CCCCCCCCOCCOCCOCCO` [2-[2-[2-(octyloxy)ethoxy]ethoxy]ethanol], the “molar heat capacity at constant pressure” value came out at 590.3 ± 9.1 J/K/mol.

Take `CCCCOCCO` [2-butoxyethan-1-ol]: the “molar heat capacity at constant pressure” value came out at 287.5 ± 4.5 J/K/mol.

Regarding `CCOCCO` [2-ethoxyethan-1-ol], the “molar heat capacity at constant pressure” value is given as 221.8 ± 3.4 J/K/mol.

Turning to `CCCOCCO` [2-propoxyethanol], the “molar heat capacity at constant pressure” value is reported as 254.3 ± 3.9 J/K/mol.

The same data set, now with this note: 329.15 K; 101.33 kPa; Liquid; Large sample (1 g) DSC.
For `CCCCCCOCCOCCO` [2-(2-hexyloxyethoxy)ethanol], the “molar heat capacity at constant pressure” value amounted to 436 ± 6.8 J/K/mol.

In the case of `COCCOCCO` [2-(2-methoxyethoxy)ethanol], the “molar heat capacity at constant pressure” value came out at 276.6 ± 4.3 J/K/mol.

Take `CCCOCCOCCO` [2-(2-propoxyethoxy)ethanol]: the “molar heat capacity at constant pressure” value is recorded as 342 ± 5.3 J/K/mol.

In the case of `COCCOCCOCCO` [2-[2-(2-methoxyethoxy)ethoxy]ethanol], the “molar heat capacity at constant pressure” value is 364.5 ± 5.6 J/K/mol.

Take `CCCCCCCCOCCOCCOCCO` [2-[2-[2-(octyloxy)ethoxy]ethoxy]ethanol]: the “molar heat capacity at constant pressure” value is 591.6 ± 9.2 J/K/mol.

In the case of `CCCCOCCO` [2-butoxyethan-1-ol], the “molar heat capacity at constant pressure” value amounted to 288.5 ± 4.5 J/K/mol.

`CCOCCO` [2-ethoxyethan-1-ol]: the “molar heat capacity at constant pressure” value is 222.6 ± 3.4 J/K/mol.

Turning to `CCCOCCO` [2-propoxyethanol], the “molar heat capacity at constant pressure” value was 255.2 ± 4 J/K/mol.

The data set is the same for the next values; noted with them: 331.15 K; 101.33 kPa; Liquid; Large sample (1 g) DSC.
For the molecule `CCCCCCOCCOCCO` [2-(2-hexyloxyethoxy)ethanol], the “molar heat capacity at constant pressure” value turned out to be 437 ± 6.8 J/K/mol.

Take `COCCOCCO` [2-(2-methoxyethoxy)ethanol]: the “molar heat capacity at constant pressure” value was found to be 277.3 ± 4.3 J/K/mol.

For the molecule `CCCOCCOCCO` [2-(2-propoxyethoxy)ethanol], the “molar heat capacity at constant pressure” value was 342.9 ± 5.3 J/K/mol.

In the case of `COCCOCCOCCO` [2-[2-(2-methoxyethoxy)ethoxy]ethanol], the “molar heat capacity at constant pressure” value was 365.1 ± 5.7 J/K/mol.

Turning to `CCCCCCCCOCCOCCOCCO` [2-[2-[2-(octyloxy)ethoxy]ethoxy]ethanol], the “molar heat capacity at constant pressure” value was found to be 592.9 ± 9.2 J/K/mol.

For `CCCCOCCO` [2-butoxyethan-1-ol], the “molar heat capacity at constant pressure” value is 289.6 ± 4.5 J/K/mol.

On to `CCOCCO` [2-ethoxyethan-1-ol], for which the “molar heat capacity at constant pressure” value amounted to 223.3 ± 3.5 J/K/mol.

Regarding `CCCOCCO` [2-propoxyethanol], the “molar heat capacity at constant pressure” value is recorded as 256.1 ± 4 J/K/mol.

Staying with this data set, now noted: 333.15 K; 101.33 kPa; Liquid; Large sample (1 g) DSC.
In the case of `CCCCCCOCCOCCO` [2-(2-hexyloxyethoxy)ethanol], the “molar heat capacity at constant pressure” value is 438 ± 6.8 J/K/mol.

Turning to `COCCOCCO` [2-(2-methoxyethoxy)ethanol], the “molar heat capacity at constant pressure” value was determined as 278 ± 4.3 J/K/mol.

Take `CCCOCCOCCO` [2-(2-propoxyethoxy)ethanol]: the “molar heat capacity at constant pressure” value stood at 343.8 ± 5.3 J/K/mol.

Take `COCCOCCOCCO` [2-[2-(2-methoxyethoxy)ethoxy]ethanol]: the “molar heat capacity at constant pressure” value is listed as 365.8 ± 5.7 J/K/mol.

`CCCCCCCCOCCOCCOCCO` [2-[2-[2-(octyloxy)ethoxy]ethoxy]ethanol]: the “molar heat capacity at constant pressure” value is listed as 594.3 ± 9.2 J/K/mol.

With `CCCCOCCO` [2-butoxyethan-1-ol], the “molar heat capacity at constant pressure” value turned out to be 290.6 ± 4.5 J/K/mol.

As to `CCOCCO` [2-ethoxyethan-1-ol], the “molar heat capacity at constant pressure” value was 224.1 ± 3.5 J/K/mol.

For `CCCOCCO` [2-propoxyethanol], the “molar heat capacity at constant pressure” value is 257.1 ± 4 J/K/mol.

The same data set, now with this note: 335.15 K; 101.33 kPa; Liquid; Large sample (1 g) DSC.
With `CCCCCCOCCOCCO` [2-(2-hexyloxyethoxy)ethanol], the “molar heat capacity at constant pressure” value is given as 439.1 ± 6.8 J/K/mol.

For the molecule `COCCOCCO` [2-(2-methoxyethoxy)ethanol], the “molar heat capacity at constant pressure” value stood at 278.7 ± 4.3 J/K/mol.

As for `CCCOCCOCCO` [2-(2-propoxyethoxy)ethanol], the “molar heat capacity at constant pressure” value was determined as 344.7 ± 5.3 J/K/mol.

As for `COCCOCCOCCO` [2-[2-(2-methoxyethoxy)ethoxy]ethanol], the “molar heat capacity at constant pressure” value was determined as 366.4 ± 5.7 J/K/mol.

For the molecule `CCCCCCCCOCCOCCOCCO` [2-[2-[2-(octyloxy)ethoxy]ethoxy]ethanol], the “molar heat capacity at constant pressure” value is recorded as 595.6 ± 9.2 J/K/mol.

Turning to `CCCCOCCO` [2-butoxyethan-1-ol], the “molar heat capacity at constant pressure” value worked out at 291.6 ± 4.5 J/K/mol.

On to `CCOCCO` [2-ethoxyethan-1-ol], for which the “molar heat capacity at constant pressure” value came out at 224.9 ± 3.5 J/K/mol.

In the case of `CCCOCCO` [2-propoxyethanol], the “molar heat capacity at constant pressure” value is on record as 258 ± 4 J/K/mol.

The data set is the same for the next values; noted with them: 337.15 K; 101.33 kPa; Liquid; Large sample (1 g) DSC.
Take `CCCCCCOCCOCCO` [2-(2-hexyloxyethoxy)ethanol]: the “molar heat capacity at constant pressure” value is listed as 440.2 ± 6.8 J/K/mol.

As to `COCCOCCO` [2-(2-methoxyethoxy)ethanol], the “molar heat capacity at constant pressure” value turned out to be 279.4 ± 4.3 J/K/mol.

With `CCCOCCOCCO` [2-(2-propoxyethoxy)ethanol], the “molar heat capacity at constant pressure” value came to 345.6 ± 5.4 J/K/mol.

On to `COCCOCCOCCO` [2-[2-(2-methoxyethoxy)ethoxy]ethanol], for which the “molar heat capacity at constant pressure” value came out at 367 ± 5.7 J/K/mol.

`CCCCCCCCOCCOCCOCCO` [2-[2-[2-(octyloxy)ethoxy]ethoxy]ethanol]: the “molar heat capacity at constant pressure” value was determined as 597 ± 9.2 J/K/mol.

Take `CCCCOCCO` [2-butoxyethan-1-ol]: the “molar heat capacity at constant pressure” value stood at 292.6 ± 4.5 J/K/mol.

For the molecule `CCOCCO` [2-ethoxyethan-1-ol], the “molar heat capacity at constant pressure” value was 225.7 ± 3.5 J/K/mol.

For the molecule `CCCOCCO` [2-propoxyethanol], the “molar heat capacity at constant pressure” value was determined as 258.9 ± 4 J/K/mol.

The same data set, now with this note: 339.15 K; 101.33 kPa; Liquid; Large sample (1 g) DSC.
For `CCCCCCOCCOCCO` [2-(2-hexyloxyethoxy)ethanol], the “molar heat capacity at constant pressure” value came to 441.2 ± 6.8 J/K/mol.

On to `COCCOCCO` [2-(2-methoxyethoxy)ethanol], for which the “molar heat capacity at constant pressure” value turned out to be 280.1 ± 4.3 J/K/mol.

Turning to `CCCOCCOCCO` [2-(2-propoxyethoxy)ethanol], the “molar heat capacity at constant pressure” value was found to be 346.5 ± 5.4 J/K/mol.

For `COCCOCCOCCO` [2-[2-(2-methoxyethoxy)ethoxy]ethanol], the “molar heat capacity at constant pressure” value was 367.6 ± 5.7 J/K/mol.

`CCCCCCCCOCCOCCOCCO` [2-[2-[2-(octyloxy)ethoxy]ethoxy]ethanol]: the “molar heat capacity at constant pressure” value is given as 598.4 ± 9.3 J/K/mol.

For the molecule `CCCCOCCO` [2-butoxyethan-1-ol], the “molar heat capacity at constant pressure” value is given as 293.6 ± 4.5 J/K/mol.

As for `CCOCCO` [2-ethoxyethan-1-ol], the “molar heat capacity at constant pressure” value is 226.5 ± 3.5 J/K/mol.

As for `CCCOCCO` [2-propoxyethanol], the “molar heat capacity at constant pressure” value worked out at 259.9 ± 4 J/K/mol.

The values above are taken from the NIST ThermoML archive (doi:10.1021/acs.jced.5b00051).
